US7943786B2, “Process for preparing amorphous (4R-cis)-6-[2-[3-phenyl-4-(phenylcarbamoyl)-2-(4-fluorophenyl)-5-(1-methylethyl)-pyrrol-1-yl]-ethyl]-2,2-dimethyl-[1,3]-dioxane-4-yl-acetic acid” (priority 2003, dated 2011)

Columns and labels:
Format in all cases: physicochemical
[1] = Comparison of solubility of amorphous and crystalline form in aprotic organic solvents; conditions: e.g. diisopropyl ether, methyl cyclohexane, isopropanol
[2] = Dissolution in tetrahydrofuran (clarity of solution)
Solubility in water = experiment: Solubility in water

SMILES	solubility of amorphous versus crystalline form [1]	appearance of solution on dissolution in THF [2]	solubility in water (Solubility in water)
CC(C)c1c(C(=O)Nc2ccccc2)c(-c2ccccc2)c(-c2ccc(F)cc2)n1CC[C@@H]1C[C@H](CC(=O)OC(C)(C)C)OC(C)(C)O1 [amorphous compound of the formula I, (4R-cis)-6-[2-[3-phenyl-4-(phenylcarbamoyl)-2-(4-fluorophenyl)-5-(1-methylethyl)-pyrrol-1-yl]-ethyl]-2,2-dimethyl-[1,3]-dioxane-4-yl-acetic acid-tertiary butyl ester]	better soluble	perfectly clear solution	
CC(C)c1c(C(=O)Nc2ccccc2)c(-c2ccccc2)c(-c2ccc(F)cc2)n1CC[C@@H]1C[C@H](CC(=O)OC(C)(C)C)OC(C)(C)O1 [compound of the formula I, (4R-cis)-6-[2-[3-phenyl-4-(phenylcarbamoyl)-2-(4-fluorophenyl)-5-(1-methylethyl)-pyrrol-1-yl]-ethyl]-2,2-dimethyl-[1,3]-dioxane-4-yl-acetic acid-tertiary butyl ester]			very poor solubility in water or is practically insoluble in water
CC(C)c1c(C(=O)Nc2ccccc2)c(-c2ccccc2)c(-c2ccc(F)cc2)n1CC[C@@H]1C[C@H](CC(=O)OC(C)(C)C)OC(C)(C)O1 [crystalline compound of the formula I, (4R-cis)-6-[2-[3-phenyl-4-(phenylcarbamoyl)-2-(4-fluorophenyl)-5-(1-methylethyl)-pyrrol-1-yl]-ethyl]-2,2-dimethyl-[1,3]-dioxane-4-yl-acetic acid-tertiary butyl ester]		some dimness appeared	
